Source: PubChem BioAssay AID588548 (Broad Institute, 2011)

Molecular target: Scavenger receptor class B member 1 (Mus musculus) (UniProt Q61009)
Test: SR-BI-mediated DiI-HDL uptake inhibitors, dose response, ldlA[mSR-BI] CHO cells, powder samples, set 4 (AID 588548)
Settings: DiI-HDL uptake fluorescence, 3 h

Sequence of Scavenger receptor class B member 1 (Mus musculus) (Q61009 whole entry, looked up): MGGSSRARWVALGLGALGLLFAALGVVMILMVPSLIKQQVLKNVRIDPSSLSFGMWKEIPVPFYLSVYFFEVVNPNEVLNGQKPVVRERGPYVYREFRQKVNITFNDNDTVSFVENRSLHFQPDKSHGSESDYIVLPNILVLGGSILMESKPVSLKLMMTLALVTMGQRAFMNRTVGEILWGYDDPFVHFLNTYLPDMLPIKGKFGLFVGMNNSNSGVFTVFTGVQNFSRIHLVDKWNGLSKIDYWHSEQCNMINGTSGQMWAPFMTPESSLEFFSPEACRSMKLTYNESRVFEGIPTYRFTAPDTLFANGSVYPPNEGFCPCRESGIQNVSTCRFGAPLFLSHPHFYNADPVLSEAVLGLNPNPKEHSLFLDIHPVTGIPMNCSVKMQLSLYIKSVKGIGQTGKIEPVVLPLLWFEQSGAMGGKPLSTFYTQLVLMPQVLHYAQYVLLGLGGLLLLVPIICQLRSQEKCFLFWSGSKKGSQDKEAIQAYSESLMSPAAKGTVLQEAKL

AC50 [nM] | SMILES
< 15 | CCCCCCC1CCC/C1=N\NC(N)=S (configuration not stated)
103 | COc1cc(OC)cc(C(=O)Nc2nc(-c3ccc4c(c3)CCN4)cs2)c1
< 15 | CCNC(=O)N1CCc2cc(-c3csc(NC(=O)c4cc(OC)cc(OC)c4)n3)ccc21
99.3 | CCC(=O)Nc1ccc(-c2csc(NC(=O)c3cccc(OC)c3)n2)cc1
50.5 | COc1cc(OC)cc(C(=O)Nc2nc(-c3ccc4[nH]ccc4c3)cs2)c1
< 15 | O=C(Nc1nc(-c2ccc3c(c2)CCN3)cs1)c1ccco1
50 | CCC(=O)N1CCc2cc(-c3csc(N(C)C(=O)c4cc(OC)cc(OC)c4)n3)ccc21
24.9 | COc1cc(OC)cc(C(=O)Nc2nc(-c3ccc4c(c3)CCN4C(C)=O)cs2)c1
28.6 | CCC(=O)N1CCc2cc(-c3csc(NC(=O)c4ccco4)n3)ccc21
302 | O=C(CN(C(=O)Cn1nnc(-c2ccc(Cl)c(Cl)c2)n1)C1CCCCC1)NC1CCCC1
1920 | CCC(=O)Nc1ccc(-c2csc(NC(=O)c3ccco3)n2)cc1
8840 | CCC(=O)Nc1ccc(-c2csc(N)n2)cc1
14600 | CC(C)(C)OC(=O)N1CCc2cc(-c3noc(NC(=O)c4ccco4)n3)ccc21
5260 | COc1ccc(-c2nc(CC(=O)N(C3CCCCC3)C(C)C(=O)NC3CCCC3)cs2)cc1OC (configuration not stated)
1020 | CCC(=O)N1CCc2cc(-c3csc(/N=C(/OC)c4cc(OC)cc(OC)c4)n3)ccc21
45.3 | CCC(=O)N1CCc2cc(-c3csc(NC(=O)c4cc5cccnc5o4)n3)ccc21

AC50 [nM] | SMILES
72 | COC(=O)N1CCc2cc(-c3csc(NC(=O)c4cc(OC)cc(OC)c4)n3)ccc21
51.7 | CCCN1CCc2cc(-c3csc(NC(=O)c4cc(OC)cc(OC)c4)n3)ccc21
250 | CC(C(=O)NC1CCCC1)N(C(=O)Cn1nnc(-c2ccc(Cl)c(Cl)c2)n1)C1CCCCC1 (configuration not stated)
< 15 | COCC(=O)N1CCc2cc(-c3csc(NC(=O)c4cc(OC)cc(OC)c4)n3)ccc21
< 15 | O=C(CN(C(=O)Cn1nnc(-c2ccc3c(c2)OCO3)n1)C1CCCCC1)NC1CCCC1
29.5 | CCC(=O)N1CCc2cc(-c3csc(NC(=O)c4cc(OC)cc(OC)c4)n3)ccc21
28.5 | COc1ccc(-c2cc(CC(=O)N(C3CCCCC3)C(C)C(=O)NC3CCCC3)no2)cc1OC (configuration not stated)
26 | O=C(CN(C(=O)Cn1nnc(-c2ccc3c(c2)OC(F)(F)O3)n1)C1CCCCC1)NC1CCCC1
63.5 | CC(C(=O)NC1CCCC1)N(C(=O)Cn1nnc(-c2ccc3c(c2)OC(F)(F)O3)n1)C1CCCCC1 (configuration not stated)
< 15 | CCC(=O)N1CCc2cc(-c3csc(NC(=O)c4cc(OC)c(OC)c(OC)c4)n3)ccc21
< 15 | COc1cc(OC)cc(C(=O)Nc2nc(-c3ccc4c(c3)CCN4C(=O)CN(C)C)cs2)c1
< 15 | COc1ccc(-c2nnn(CC(=O)N(CC(=O)NC3CCCC3)C3CCCCC3)n2)cc1OC
18.5 | CCC(=O)N1CCc2cc(-c3csc(NC(=O)c4cccc(OC(F)(F)F)c4)n3)ccc21
< 15 | CC(C(=O)NC1CCCC1)N(C(=O)Cn1nnc(-c2ccc3c(c2)OCO3)n1)C1CCCCC1 (configuration not stated)
< 15 | COc1cc(OC)cc(C(=O)Nc2nc(-c3ccc4c(c3)CCN4C(=O)OC(C)(C)C)cs2)c1
3180 | CC(C(=O)NC1CCCC1)N(C(=O)Cn1nnc(-c2ccc3c(c2)OCO3)n1)C1CCOCC1 (configuration not stated)
